According to patent US20200038399A1, “FORMULATIONS, METHODS, KIT, AND DOSAGE FORMS FOR TREATING BACTERIAL INFECTION” (Motif BioSciences Inc., priority 2016, published 2020):

Legend:
[1] = tested on: S. aureus 101; test: MIC determination; assay type: cell-based, Staphylococcus aureus; settings: Staphylococcus aureus, 101, 18 h; read-out: Minimum inhibitory concentrations (MIC)
Method: (§1) Minimum inhibitory concentration (MIC) determination.
(§2) In order to choose the appropriate concentrations to be tested in the checkerboard experiments, minimum inhibitory concentrations (MICs) were determined first. […] Table 6) in microtiter plates. Stock solutions (10 mg/ml) of reference antibiotics were prepared in DMSO (except for tobramycin, gentamicin, lomefloxacin, tetracycline) and stored at 4° C. The bacteria were grown in Mueller-Hinton Broth (BBL Mueller-Hinton Broth II, cation adjusted). S. pneumoniae was grown in Mueller-Hinton Broth supplemented with 5% (v/v) lysed sheep blood. For the growth of H. influenzae HTM (Haemophilus test medium) was used containing Mueller-Hinton broth, yeast extract ([…], Difco) and supplemented with NAD and hematin (HTM Supplement, Oxoid SR0158E). M. catarrhalis was grown in Brain Heart Infusion medium (Oxoid). The bacteria were incubated for 18 hours at 37° C. in ambient air except for S. pneumoniae, H. influenzae and M. catarrhalis, which were incubated in the presence of 5% CO2. The MIC was determined as the lowest concentration of an individual drug that lead to no visible growth.

[2] = tested on: S. pneumoniae 1/1; test: MIC determination; assay type: cell-based, Streptococcus pneumoniae; settings: Streptococcus pneumoniae; S. pneumoniae 1/1; 18 hours at 37° C., 5% CO2; read-out: Minimum inhibitory concentrations (MIC)
Method: as §1, §2

[3] = tested on: Haemophilus influenzae ATCC 49766; test: MIC determination; assay type: cell-based; settings: Haemophilus influenzae, ATCC49766; H. Influenza 49766; 18 hours at 37° C., 5% CO2; read-out: Minimum inhibitory concentrations (MIC)
Method: as §1, §2

[4] = tested on: Klebsiella pneumoniae ATCC 33495; test: MIC determination; assay type: cell-based; settings: Klebsiella pneumoniae, ATCC33495; K. pneumonia 33495; 18 hours at 37° C.; read-out: Minimum inhibitory concentrations (MIC)
Method: as §1, §2

[5] = tested on: Moraxella catarrhalis RA 21; test: MIC determination; assay type: cell-based; settings: Moraxella catarrhalis, RA21; M. catarrhalis RA 21; 18 hours at 37° C., 5% CO2; read-out: Minimum inhibitory concentrations (MIC)
Method: as §1, §2

[6] = tested on: Staphylococcus aureus ATCC 25923; test: MIC determination; assay type: cell-based; settings: Staphylococcus aureus, ATCC25923; S. aureus 25923; 18 hours at 37° C.; read-out: Minimum inhibitory concentrations (MIC)
Method: as §1, §2

[7] = tested on: Streptococcus pneumoniae ATCC 49619; test: MIC determination; assay type: cell-based; settings: Streptococcus pneumoniae, ATCC49619; S. pneumoniae 49619; 18 hours at 37° C., 5% CO2; read-out: Minimum inhibitory concentrations (MIC)
Method: as §1, §2

[8] = tested on: Haemophilus influenzae ATCC 49766; test: checkerboard synergy assay with iclaprim; assay type: cell-based; settings: antibiotic in combination with iclaprim; H. influenzae 49766
Method: (§3) The synergistic potential of iclaprim against Gram-positive and Gram-negative bacteria was determined using the checkerboard assay as described in Eliopoulos GM and Moellering, Jr. RC (1991), Antimicrobial combinations, pp. 432-492, in V. Lorian (ed.), Antibiotics in laboratory medicine, 3rd Ed., The Williams & Wilkins Co., Baltimore, the entire disclosure of which is herein incorporated by reference, allowing multiple test concentrations of iclaprim to be assayed in the presence of various concentrations of the other antibiotic in microtiter plates. The same growth media and conditions were used as described in 3.2 below.
(§4) Two different dilutions were used for iclaprim depending on the MIC determined for the bacterium. […] Iclaprim and the other antibiotic being tested were also dispensed alone in the last row and in the last column, respectively, as controls.
(§5) The Fractional Inhibitory Concentrations (FIC) for each added agent were calculated and used to determine the sum of FIC (ΣFIC) indicative of the synergistic potential of a given combination as described in Veyssier P. (1999), Inhibiteurs de la dihydrofolate reductase, nitrohétérocycles (furanes) et 8-hydroxyquinoleines, pp. 995-1027, in A. Bryskier (ed.), Antibiotiques agents antibatériens et antifongiques, 1st Ed., Ellipses Edition Marketing SA, Paris, the entire disclosure of which is herein incorporated by reference. Synergy was defined whereby the ΣFIC was <0.5, indifference (no synergy nor antagonism) whereby ΣFIC was ≥0.5 but ≤4, and antagonism whereby ΣFIC was >4. Additivity as a special form of indifference was defined whereby the ΣFIC was ≥0.5 but <1, for example as described in Stevens, D L et al. (1998), In vitro antimicrobial effects of various combinations of penicillin and clindamycin against four strains of Streptococcus pyogenes, J. Antimicrob. Chemother. 42: 1266-1268, the entire disclosure of which is herein incorporated by reference.

[9] = tested on: Klebsiella pneumoniae ATCC 33495; test: checkerboard synergy assay with iclaprim; assay type: cell-based; settings: antibiotic in combination with iclaprim; K. pneumoniae 33495
Method: as §3, §4, §5

[10] = tested on: Moraxella catarrhalis RA 21; test: checkerboard synergy assay with iclaprim; assay type: cell-based; settings: antibiotic in combination with iclaprim; M. catarrhalis RA 21
Method: as §3, §4, §5

[11] = tested on: Staphylococcus aureus ATCC 25923; test: checkerboard synergy assay with iclaprim; assay type: cell-based; settings: antibiotic in combination with iclaprim; S. aureus 25923
Method: as §3, §4, §5

[12] = tested on: Streptococcus pneumoniae ATCC 49619; test: checkerboard synergy assay with iclaprim; assay type: cell-based; settings: antibiotic in combination with iclaprim; S. pneumoniae 49619
Method: as §3, §4, §5

[13] = tested on: S. aureus 101; test: checkerboard synergy assay with iclaprim; assay type: cell-based, Staphylococcus aureus; settings: antibiotic in combination with iclaprim
Method: as §3, §4, §5

[14] = tested on: S. pneumoniae 1/1; test: checkerboard synergy assay with iclaprim; assay type: cell-based, Streptococcus pneumoniae; settings: antibiotic in combination with iclaprim
Method: as §3, §4, §5

| SMILES | MIC [1] [µg/mL] | MIC [2] [µg/mL] | MIC [3] [µg/mL] | MIC [4] [µg/mL] | MIC [5] [µg/mL] | MIC [6] [µg/mL] | MIC [7] [µg/mL] | Con (Conclusion) [8] | Σ FIC [8] | Con (Conclusion) [9] | Σ FIC [9] | Con (Conclusion) [10] | Σ FIC [10] | Σ FIC [11] | Σ FIC [12] | Σ FIC [13] | Σ FIC [14] |
| --- | --- | --- | --- | --- | --- | --- | --- | --- | --- | --- | --- | --- | --- | --- | --- | --- | --- |
| CCN1CCN(C(=O)N[C@@H](C(=O)N[C@@H]2C(=O)N3[C@@H]2SC(C)(C)[C@@H]3C(=O)O)c2ccccc2)C(=O)C1=O [Piperacillin] | > 128 | 8 | 0.031 | 32 | 0.25 | 0.5 | 2 | Ad (Additivity (Ad)) | 0.54-1.25 | Ad (Additivity (Ad)) | 0.53-1.25 | Ind (Indifference (Ind)) | 1.03-1.50 | 1.06-1.50 | 1.02-1.50 | 1.01-1.50 | 0.63-1.13 |
| [H]/N=C(/N)N[C@H]1[C@H](O)[C@@H](O)[C@H](O[C@@H]2O[C@@H](C)[C@](O)(C=O)[C@H]2O[C@@H]2O[C@@H](CO)[C@H](O)[C@@H](O)[C@@H]2NC)[C@@H](N/C(N)=N\[H])[C@@H]1O [Streptomycin] | 8 | > 128 | 0.5 | 64 | 8 | 4 | 32 | Ind (Indifference (Ind)) | 1.02-1.50 | Ad (Additivity (Ad)) | 0.63-1.06 | Ind (Indifference (Ind)) | 1.06-1.50 | 1.13-1.50 | 1.00-1.25 | 1.13-1.50 | 1.01-1.50 |
| CC(=O)O[C@H]1C[C@@]2(C)[C@@H](C[C@@H](O)[C@H]3[C@@]4(C)CC[C@@H](O)[C@@H](C)[C@@H]4CC[C@@]32C)/C1=C(\CCC=C(C)C)C(=O)O [Fusidic acid] | 0.125 | 8 | 1 | > 128 | < 0.008 | 0.25 | 4 | Ind (Indifference (Ind)) | 1.06-1.50 | Ind (Indifference (Ind)) | 1.00-1.25 | Ind (Indifference (Ind)) | 1.00-1.00 | 2.03-2.50 | 1.13-1.50 | 1.06-1.50 | 1.06-1.50 |
| COc1ccc(C[C@H](N)C(=O)N[C@H]2[C@@H](O)[C@H](n3cnc4c(N(C)C)ncnc43)O[C@@H]2CO)cc1 [Puromycin] | 16 | 8 | 8 | > 128 | 4 | 32 | 8 | Ind (Indifference (Ind)) | 1.06-1.50 | Ind (Indifference (Ind)) | 1.01-1.50 | Ind (Indifference (Ind)) | 1.06-1.50 | 1.06-1.50 | 0.63-1.25 | 1.13-1.50 | 1.13-1.50 |
| CCn1cc(C(=O)O)c(=O)c2cc(F)c(N3CCNCC3)cc21 [Norfloxacin] | 128 | 4 | 0.125 | 2 | 0.5 | 1 | 4 | Ad (Additivity (Ad)) | 0.52-1.25 | Ad (Additivity (Ad)) | 0.75-1.13 | Ad (Additivity (Ad)) | 0.56-1.13 | 0.56-1.25 | 1.00-1.25 | 1.02-1.50 | 1.13-1.50 |
| Cc1onc(-c2ccccc2)c1C(=O)N[C@@H]1C(=O)N2[C@@H]1SC(C)(C)[C@@H]2C(=O)O [Oxacillin] | 8 | 32 | 16 | > 128 | 32 | 0.125 | 2 | Ind (Indifference (Ind)) | 1.00-1.25 | Ind (Indifference (Ind)) | 1.01-1.50 | Ind (Indifference (Ind)) | 1.06-1.50 | 1.06-1.50 | 1.06-1.50 | 1.00-1.25 | 1.06-1.50 |
| Cc1onc(-c2ccccc2Cl)c1C(=O)N[C@@H]1C(=O)N2[C@@H]1SC(C)(C)[C@@H]2C(=O)O [Cloxacillin] | 2 | 64 | 16 | > 128 | 64 | 0.25 | 8 | Ind (Indifference (Ind)) | 1.13-1.50 | Ind (Indifference (Ind)) | 1.01-2.50 | Ad (Additivity (Ad)) | 0.53-1.00 | 0.99-1.25 | 1.00-1.25 | 1.00-1.25 | 1.00-1.25 |
| CCn1cc(C(=O)O)c(=O)c2cc(F)c(N3CCNC(C)C3)c(F)c21 (stereo not drawn) [Lomefloxacin] | 128 | 8 | 0.125 | 4 | 0.5 | 1 | 8 | Ind (Indifference (Ind)) | 1.06-1.50 | Ind (Indifference (Ind)) | 1.13-1.50 | Ad (Additivity (Ad)) | 0.63-1.13 | 1.06-1.50 | 0.75-1.13 | 1.02-1.50 | 0.75-1.13 |
| CO[C@@]1(NC(=O)C(C(=O)O)c2ccc(O)cc2)C(=O)N2C(C(=O)O)=C(CSc3nnnn3C)CO[C@@H]21 (stereo partly drawn) [Moxalactam] | 4 | 4 | 1 | 8 | 2 | 1 | 1 | Ind (Indifference (Ind)) | 1.06-1.50 | Ad (Additivity (Ad)) | 0.75-1.25 | Ind (Indifference (Ind)) | 1.00-1.25 | 0.56-1.25 | 1.00-1.25 | 0.63-1.25 | 1.13-1.50 |
